Reference: US20240317722A1, “HETEROARYL-3-PIPERIDINEDIONE COMPOUND AND USE THEREOF” (Medshine Discovery Inc., priority 2021, published 2024)

What was measured:
NCI-H1581 = assay: Anti-proliferative effect in NCI-H1581 (CellTiter-Glo); assay type: cell-based; conditions: NCI-H1581, 3 days; for IC50: Homo sapiens, 72 h
Description: (§1) This assay studied the inhibitory effect of the compounds on cell proliferation by detecting the effect of the test compounds on the in vitro activity of tumor cells NCI-H1581, DMS114, NCI-H69 and NCI-H526.
(§2) The tumor cell lines were cultured in an incubator at 37° C., 5% CO2 or 0% CO2 according to the above culture conditions. The cells were periodically passaged, and cells in logarithmic growth phase were taken for plating. • 2. Cell plating • (1). Cells were stained with trypan blue and viable cells were counted.
(§3) • (3). 100 μL of cell suspension was added to each well of the culture plate, and culture medium without cells was added to the blank control well. • (4). The plate was incubated overnight in an incubator at 37° C., 5% CO2 or 0% CO2, and 100% relative humidity. • 3. Preparation of compound stock solution
(§4) Preparation of 1000× compound stock solution: Compound was dissolved in DMSO to 10 mM, then a portion was taken out and diluted to 1000 times the highest acting concentration. The diluted stock solution was dispensed for later use. • 4. Preparation of 5× compound working solution and treatment of cells with compounds. The working solutions were prepared freshly at each time for use. • (1). Preparation of 5× compound working solution: 119.4 μL of cell culture medium was added to a 96-well plate with a V-shaped bottom. 96 μL of DMSO-cell culture medium mix solution (with DMSO content of 0.5%) was added to subsequent gradient wells. 0.6 μL of the compound from the 1000× compound stock solution was added to the cell culture medium in the 96-well plate, and mixed to uniform with a pipette. A pipette was used to draw 24 μL of the compound-cell culture medium mixture into subsequent wells, and the mixture was mixed well by a pipette each time. • (2). Dosing: 25 μL of 5× compound working solution was added to the cell culture plate. 25 μL of DMSO-cell culture medium mix solution (with DMSO content of 0.5%) was added to the vehicle control and blank control. • (3). The 96-well cell plate was placed back into the incubator and cultured for 3 days. • 5. CellTiter-Glo luminescence cell viability detection
(§5) The following steps were performed according to the instruction of Promega CellTiter-Glo luminescence cell viability detection kit (Promega-G7573). • (1). The CellTiter-Glo buffer was thawed and allowed to stand to reach room temperature; • (2). CellTiter-Glo substrate was allowed to stand to reach room temperature; • (3). 10 mL of CellTiter-Glo buffer was added to CellTiter-Glo substrate in a bottle to dissolve the substrate to formulate CellTiter-Glo working solution; • (4). […] The culture plates were left at room temperature for 10 minutes to stabilize the luminescence signal; • (9). The luminous signal was detected on the 2104 En Vision plate reader. • 6. […]

NCI-H69 = assay: Anti-proliferative effect in NCI-H69 (CellTiter-Glo); assay type: cell-based; conditions: NCI-H69, 3 days; for IC50: Homo sapiens, 72 h
Description: as §1, §2, §3, §4, §5

[1] = tested on: human triple-negative breast cancer MDA-MB-231 cells; assay: In vivo pharmacodynamic study, subcutaneous xenograft tumor Balb/c nude mouse model of MDA-MB-231 cells; design: species or system Balb/c nude mice; conditions: for Tumor volume (Day 0): Day 0 (grouping); for in vivo efficacy on the xenograft tumor model (in words): MDA-MB-231 xenograft, oral
Description: Cell culture: Human triple-negative breast cancer MDA-MB-231 cells (ATCC-HTB-26) were cultured in monolayer in vitro. The culture conditions were RPMI-1640 medium with 10% fetal bovine serum in an incubator at 37° C. and 5% CO2. Conventional digestion with trypsin-EDTA was performed once every two days for passage. When the cell saturation was 80%-90% and the number met the requirement, the cells were collected, counted, and inoculated.
Assay animals: Balb/c nude mice, female, 6 weeks old upon arrival, purchased from Shanghai Bikai Experimental Animal Co., Ltd.
Cell inoculation: 0.2 mL (5×10^6 cells) of MDA-MB-231 cells (with matrigel, v/v 1:1) were subcutaneously inoculated into the right back of each mouse. The grouping for administration was started when the average tumor volume reached 110 mm^3. One dosing cycle was seven days, with administration once a day and an interval of 24 hours. The test compound was administered orally for a total of four cycles. The dosages of test compound WX005 were 10 mg/kg, 30 mg/kg and 100 mg/kg respectively, and the dosage of WX013 was 30 mg/kg respectively. Tumor diameter was measured twice a week with a vernier caliper. Tumor volume was calculated by the following formula: V=0.5a×b^2, where a and b are the long and short diameters of the tumor, respectively. The anti-tumor efficacy of compounds was evaluated by TGI (%) or relative tumor proliferation rate T/C (%). Relative tumor proliferation rate T/C (%)=TRTV/CRTV×100% (TRTV: average RTV of the treatment group; CRTV: average RTV of the negative control group). The relative tumor volume (RTV) was calculated based on the results of tumor measurement by the calculation formula: RTV=Vt/V0, where V0 is the tumor volume measured at grouping for administration (i.e., D0), and Vt is the tumor volume at a certain measurement, and TRTV and CRTV are taken on the same day.

Row | SMILES | IC50 (NCI-H1581) [nM] | Max. IR (NCI-H1581) [%] | IC50 (NCI-H69) [nM] | Max. IR (NCI-H69) [%] | Tumor volume (Day 0) ([1]; 10 mg/kg orally once a day) [mm^3] | Relative tumor proliferation rate T/C (Day 27) ([1]; 10 mg/kg orally once a day) [%] | TGI (Day 27) ([1]; 10 mg/kg orally once a day) [%] | Tumor volume (Day 27) ([1]; 10 mg/kg orally once a day) [mm^3] | in vivo efficacy on the xenograft tumor model (in words) [1] | Tumor volume (Day 0) ([1]; 30 mg/kg orally once a day) [mm^3] | Relative tumor proliferation rate T/C (Day 27) ([1]; 30 mg/kg orally once a day) [%] | TGI (Day 27) ([1]; 30 mg/kg orally once a day) [%] | Tumor volume (Day 27) ([1]; 30 mg/kg orally once a day) [mm^3]
1 | COCCOc1cc(NC(=O)NCc2ccc3c(C4CCC(=O)NC4=O)coc3c2)cc(Cl)c1C (stereo not drawn) [WX005] | 5.2 | 92.19 | 6.2 | 68.41 | 108.29 | 0 | 114.91 | 0 | significant tumor shrinkage effect |  |  |  | 
2 | COCCOc1cc(NC(=O)NCc2ccc3c(C4CCC(=O)NC4=O)noc3c2)cc(Cl)c1C (stereo not drawn) [WX013] | 1.3 | 88.62 | 1.3 | 70.53 |  |  |  |  | significant tumor shrinkage effect | 108.69 | 0 | 114.97 | 0
